Laboratory results taken from patent publication US20130102554A1, “COMPOSITION FOR TREATMENT OF OBESITY USING WHEAT BRAN EXTRACT OR ACTIVE INGREDIENT ISOLATED THEREFROM” (priority 2009, published 2013).

Columns and labels:
[1] = system: mouse preadipocyte 3T3-L1; test: Adipocyte differentiation of 3T3-L1 preadipocytes (MDI induction, Oil Red O staining, absorbance at 510 nm); assay type: cell-based; conditions: FIGS. 3 to 8; for differentiation of preadipocytes into adipocytes: 3T3-L1, MDI-induced, day 8, Oil Red O; for lipid accumulation of adipocytes: 3T3-L1, Oil Red O lipid contents
Procedure: The mouse preadipocyte 3T3-L1 was cultured at 37° C. in 10% BCS DMEM under a 5% CO2 condition.
3T3-L1 preadipocytes were seeded at a density of 5×10^4 cells/well into 24-well plates. After being grown to 100% confluency, the cells were incubated for an additional two days. Then, the preadipocytes were induced to differentiate into adipcytes in the presence of MDI (0.5 mM 3-isobutyl-1-methylxanthine (IBMX), 1 μM dexamethasone, 1 μg/ml insulin) in 10% FBS DMEM. After incubation for 48 hours in this medium, the cells were cultured for two days in 10% FBS DMEM containing 1 μg/ml insulin. Subsequently, the cells were cultured for four days in 10% FBS DMEM, with replacement of the medium with a fresh one every two days. During adipocyte differentiation, the cells were treated with predetermined concentrations of the samples. On day 8 at which differentiation was completed, observations were made of the differentiation of the cells. In this connection, the adipose differentiation was qualitatively analyzed with Oil Red 0 staining under an optical microscope and quantitatively analyzed by measuring absorbance at 510 nm.

[2] = biological target: T1, PPARγ (Homo sapiens, UniProt P37231); test: PPARγ transcriptional activity, PPRE luciferase reporter in HEK 293T cells; assay type: cell-based; conditions: 24 hours, alone or with 10 μM troglitazone, FIGS. 9 and 10
T1 construct: expressed in transfected cells; host or cells: HEK 293T
T1 sequence (P37231 1-505): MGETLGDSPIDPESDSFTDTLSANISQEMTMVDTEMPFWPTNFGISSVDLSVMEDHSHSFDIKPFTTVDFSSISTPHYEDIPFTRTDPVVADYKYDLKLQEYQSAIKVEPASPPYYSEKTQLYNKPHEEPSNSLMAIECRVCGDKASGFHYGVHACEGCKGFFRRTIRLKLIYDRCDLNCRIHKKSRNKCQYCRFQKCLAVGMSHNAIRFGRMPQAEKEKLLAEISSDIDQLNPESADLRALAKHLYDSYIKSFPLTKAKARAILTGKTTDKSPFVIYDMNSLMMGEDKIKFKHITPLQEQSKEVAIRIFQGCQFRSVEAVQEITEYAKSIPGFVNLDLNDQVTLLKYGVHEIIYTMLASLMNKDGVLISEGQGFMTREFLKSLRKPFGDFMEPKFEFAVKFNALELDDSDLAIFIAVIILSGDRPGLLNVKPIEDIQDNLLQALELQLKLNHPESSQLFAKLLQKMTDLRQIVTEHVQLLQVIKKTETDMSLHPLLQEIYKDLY
Procedure: HEK 293T cells were co-transfected with a recombinant pGL3-basic luciferase expression vector (Promega) carrying a PPRE (PPARγ response element) gene and a PPARγ gene and a pRL-SV-40 plasmid (Promega) carrying a Renilla luciferase cDNA as a control reporter. One day after transfection, the cells were treated for 24 hours with predetermined concentrations of the samples (Red-dog A, Red-dog B and Compounds 1 & 2) alone or in combination with 10 μM troglitazone, a ligand to PPARγ. The inhibitory activity of the samples against the transcription factor PPARγ was determined by measuring the expression levels of luciferase.

[3] = system: PPARγ; test: Expression of PPARγ at gene level, real-time PCR in differentiated 3T3-L1 cells; assay type: cell-based, mouse; conditions: 3T3-L1 differentiated 8 days, GAPDH control, FIGS. 11 to 16
Procedure: (§1) During adipocyte differentiation, expression levels of PPARγ, C/EBRα and ADD1/SREBP1c are increased.
(§2) After being treated with predetermined concentrations of the samples (Red-dog A, Red-dog B and Compounds 1 & 2) in the same manner as in Experimental Example 1-2, the cells were induced to differentiate into adipocytes for 8 days. The expression levels of PPARγ, C/EBRα and ADD1/SREBP1c were analyzed using real-time PCR. The 3T3-L1 cells were washed twice with PBS after differentiation for 8 days and the cell pellets were used for RNA isolation using an RNA prep kit (Qiagen). cDNA was synthesized from 1 μg of the isolated RNA before real-time PCR using SYBR green (Takara) and the primers given in Table 1, below. As a control gene, GAPDH was used. In this regard, the cDNA synthesized from 1 μg of RNA was diluted 1/50 to a volume of 5 μL and mixed with 0.5 μL of each of 10 pmole primer, 10 μL of 2XSYBR green, and […] of distilled water to give a PCR mix with a total volume of 20 μL. Real-time PCR started with denaturation at 95° C. for 30 sec, followed by 40 thermal cycles of denaturation at 95° C. for 5 sec, annealing for 60° C. for 15 sec and extension at 72° C. for 10 sec. The melt curve consisted of 80 melt cycles, starting at 55° C. to 95° C. with increments of 0.5° C. per cycle. Desired fluorescent signals were detected (data analysis was done with Bio-Rad MyiQ program).

[4] = system: C/EBRα; test: Expression of C/EBRα at gene level, real-time PCR in differentiated 3T3-L1 cells; assay type: cell-based, mouse; conditions: 3T3-L1 differentiated 8 days, GAPDH control, FIGS. 11 to 16
Procedure: as §1, §2

[5] = system: ADD1/SREBP1c; test: Expression of ADD1/SREBP1c at gene level, real-time PCR in differentiated 3T3-L1 cells; assay type: cell-based, mouse; conditions: 3T3-L1 differentiated 8 days, GAPDH control, FIGS. 11 to 16
Procedure: as §1, §2

[6] = system: PPARγ; test: Expression of PPARγ at protein level, SDS-PAGE and immunoblot in 3T3-L1 cells; assay type: cell-based, mouse; conditions: 3T3-L1, compared with β-actin; FIGS. 17 and 18
Procedure: (§3) After the 313-L1 cells were treated with the samples (Red-dog A & Red-dog B, Compounds 1 & 2) at regular intervals of two days in the same manner as in the adipocyte differentiation method, they were washed twice with PBS and lyzed in RIPA buffer (50 mM Tris-HCl, pH 8.0, 150 mM sodium chloride, 1% NP-40, 0.5% sodium dexycholate, 0.1% sodium dodecyl sulfate, protease inhibitor). Proteins harvested by centrifugation at 13,000 rpm for 30 min were separated on 8% SDS-PAGE gel and then transferred onto a membrane. The membrane was blocked with TBST containing 5% skim milk and reacted with a primary antibody (PPARγ, C/EBPα) (Santa Cruz) and then with a secondary antibody (Santa Cruz), followed by color development with an ECL reagent (Thermo scientific) to compare the expression level of PPARγ and C/EBPα with that of β-actin.

[7] = system: C/EBRα; test: Expression of C/EBRα at protein level, SDS-PAGE and immunoblot in 3T3-L1 cells; assay type: cell-based, mouse; conditions: 3T3-L1, compared with β-actin; FIGS. 17 and 18
Procedure: as §3

[8] = system: resistin; test: Anti-insulin resistance assay: resistin expression at gene level in differentiated 3T3-L1 cells; assay type: cell-based, mouse; conditions: cells differentiated for 8 days, FIGS. 19 to 24
Procedure: (§4) To examine whether the samples (Red-dog A & Red-dog B, compounds 1 & 2) are effective as anti-insulin resistance agents, expression levels of resistin, aP2 and Fas in the cells that had been differentiated for 8 days as in Experimental Example 1 were analyzed using the primers of Table 2, below.

[9] = system: aP2; test: Anti-insulin resistance assay: aP2 expression at gene level in differentiated 3T3-L1 cells; assay type: cell-based, mouse; conditions: cells differentiated for 8 days, FIGS. 19 to 24
Procedure: as §4

[10] = system: Fas; test: Anti-insulin resistance assay: Fas expression at gene level in differentiated 3T3-L1 cells; assay type: cell-based, mouse; conditions: cells differentiated for 8 days, FIGS. 19 to 24
Procedure: as §4

SMILES	differentiation of preadipocytes into adipocytes [1]	lipid accumulation of adipocytes [1]	transcriptional activity of PPARγ [2]	expression of PPARγ at the genetic level [3]	expression of C/EBRα at the genetic level [4]	expression of ADD1/SREBP1c at the genetic level [5]	expression of PPARγ at protein level [6]	expression of C/EBRα at protein level [7]	expression of resistin at the genetic level [8]	expression of resistin at the genetic level ([8]; listed as Chemical Formula 1)	expression of aP2 at the genetic level [9]	expression of aP2 at the genetic level ([9]; listed as Chemical Formula 1)	expression of Fas at the genetic level [10]	expression of Fas at the genetic level ([10]; listed as Chemical Formula 1)	expression of resistin at the genetic level ([8]; listed as Chemical Formula 2)	expression of aP2 at the genetic level ([9]; listed as Chemical Formula 2)	expression of Fas at the genetic level ([10]; listed as Chemical Formula 2)
COc1cc(OC2OC(CO)[C@@H](O)[C@H](O)[C@@H]2O)ccc1O (stereo partly drawn) [Compound 1, methoxy-hydroquinone-4-β-D-glucopyranoside]	inhibited the differentiation of preadipocytes into adipocytes in dose-dependent manners	inhibitory activities	inhibited the transcriptional activity of PPARγ in a dose-dependent manner	inhibit the expression of PPARγ, C/EBRα and ADD1/SREBP1c in dose-dependent manners	inhibit the expression of PPARγ, C/EBRα and ADD1/SREBP1c in dose-dependent manners	inhibit the expression of PPARγ, C/EBRα and ADD1/SREBP1c in dose-dependent manners	inhibited the expression of PPARγ and C/EBRα in dose-dependent manners	inhibited the expression of PPARγ and C/EBRα in dose-dependent manners	inhibit the expression of resistin, aP2 and Fas in dose-dependent manners	significantly suppressed	inhibit the expression of resistin, aP2 and Fas in dose-dependent manners	significantly suppressed	inhibit the expression of resistin, aP2 and Fas in dose-dependent manners	significantly suppressed	–	–	–
CCCCCC(O)C(O)/C=C/C(O)CCCCCCCC(=O)O (stereo not shown) [Compound 2, 9,12,13-trihydroxy-10(E)-octadecenoic acid]	inhibited the differentiation of preadipocytes into adipocytes in dose-dependent manners	inhibitory activities	inhibited the transcriptional activity of PPARγ in a dose-dependent manner	inhibit the expression of PPARγ, C/EBRα and ADD1/SREBP1c in dose-dependent manners	inhibit the expression of PPARγ, C/EBRα and ADD1/SREBP1c in dose-dependent manners	inhibit the expression of PPARγ, C/EBRα and ADD1/SREBP1c in dose-dependent manners	inhibited the expression of PPARγ and C/EBRα in dose-dependent manners	inhibited the expression of PPARγ and C/EBRα in dose-dependent manners	inhibit the expression of resistin, aP2 and Fas in dose-dependent manners	–	inhibit the expression of resistin, aP2 and Fas in dose-dependent manners	–	inhibit the expression of resistin, aP2 and Fas in dose-dependent manners	–	significantly suppressed	significantly suppressed	significantly suppressed
